{"source": "ChEMBL document CHEMBL4376815", "about": "“The Development Process for Discovery and Clinical Advancement of Modern Antimalarials” (J Med Chem, 2019)", "key": {"[1]": {"experiment": "Tmax in human at […], po and measured up to 96 to 144 hrs by LC-MS/MS analysis", "type": "ADME, organism-based", "conditions": "in vivo"}, "[2]": {"experiment": "Half life in human at 300 mg/kg, po by LC-MS/MS analysis", "conditions": "in vivo"}, "[3]": {"experiment": "Cmax in human at […], po and measured up to 96 to 144 hrs by LC-MS/MS analysis", "type": "ADME, organism-based", "set-up": "route oral", "conditions": "in vivo"}, "[4]": {"tested_on": "Plasmodium falciparum", "experiment": "Antimalarial activity against Plasmodium falciparum 3D7 infected in human erythrocytes assessed as reduction in [3H]-hypoxanthine incorporation incubated for 48 hrs followed by addition of [3H]-hypoxanthine and measured after 24 hrs by liquid scintillation counting method", "type": "functional, organism-based"}, "[5]": {"experiment": "Tmax in mouse at 24.6 mg/kg, po and measured up to 24 hrs by LC/MS analysis", "type": "ADME, organism-based", "conditions": "in vivo"}, "[6]": {"experiment": "Oral bioavailability in mouse at 24.6 mg/kg and measured up to 24 hrs by LC/MS analysis", "type": "ADME, organism-based", "conditions": "in vivo"}, "[7]": {"experiment": "AUC (infinity) in rat at 23.7 mg/kg, po and measured up to 24 hrs by LC/MS analysis", "type": "ADME, organism-based", "set-up": "dose 23.7 mg/kg, route oral, time infinity", "conditions": "in vivo"}, "[8]": {"tested_on": "Plasmodium falciparum", "experiment": "Antimalarial activity against Plasmodium falciparum NF54 infected in human erythrocytes assessed as reduction in [3H]-hypoxanthine incorporation incubated for 48 hrs followed by addition of [3H]-hypoxanthine and measured after 24 hrs by liquid scintillation counting method", "type": "functional, organism-based"}, "[9]": {"tested_on": "Plasmodium falciparum", "experiment": "Antimalarial activity against Plasmodium falciparum K1 infected in human erythrocytes assessed as reduction in [3H]-hypoxanthine incorporation incubated for 48 hrs followed by addition of [3H]-hypoxanthine and measured after 24 hrs by liquid scintillation counting method", "type": "functional, organism-based"}, "[10]": {"tested_on": "Plasmodium falciparum", "experiment": "Antimalarial activity against Plasmodium falciparum W2 infected in human erythrocytes assessed as reduction in [3H]-hypoxanthine incorporation incubated for 48 hrs followed by addition of [3H]-hypoxanthine and measured after 24 hrs by liquid scintillation counting method", "type": "functional, organism-based"}, "[11]": {"tested_on": "Plasmodium falciparum", "experiment": "Antimalarial activity against Plasmodium falciparum TM90C2A infected in human erythrocytes assessed as reduction in [3H]-hypoxanthine incorporation incubated for 48 hrs followed by addition of [3H]-hypoxanthine and measured after 24 hrs by liquid scintillation counting method", "type": "functional, organism-based"}, "[12]": {"tested_on": "Plasmodium falciparum", "experiment": "Antimalarial activity against Plasmodium falciparum TM91C235 infected in human erythrocytes assessed as reduction in [3H]-hypoxanthine incorporation incubated for 48 hrs followed by addition of [3H]-hypoxanthine and measured after 24 hrs by liquid scintillation counting method", "type": "functional, organism-based"}, "[13]": {"tested_on": "Plasmodium falciparum", "experiment": "Antimalarial activity against Plasmodium falciparum V1/S infected in human erythrocytes assessed as reduction in [3H]-hypoxanthine incorporation incubated for 48 hrs followed by addition of [3H]-hypoxanthine and measured after 24 hrs by liquid scintillation counting method", "type": "functional, organism-based"}, "[14]": {"tested_on": "Plasmodium berghei", "experiment": "Antimalarial activity against Plasmodium berghei infected in NMRI mouse assessed as reduction in parasite growth at 5.3 mg/kg, po administered daily for 3 consecutive days by flow cytometric analysis relative to control", "type": "functional", "set-up": "scale not given: the % may be the effect or the level left"}, "[15]": {"tested_on": "Plasmodium berghei", "experiment": "Antimalarial activity against Plasmodium berghei infected in NMRI mouse assessed as reduction in parasite growth at 30 mg/kg, po administered daily for 3 consecutive days by flow cytometric analysis relative to control", "type": "functional", "set-up": "scale not given: the % may be the effect or the level left"}, "[16]": {"tested_on": "Plasmodium berghei", "experiment": "Antimalarial activity against Plasmodium berghei infected in NMRI mouse assessed as reduction in parasite growth at 50 mg/kg, po administered daily for 3 consecutive days by flow cytometric analysis relative to control", "type": "functional", "set-up": "scale not given: the % may be the effect or the level left"}, "[17]": {"tested_on": "Plasmodium berghei", "experiment": "Antimalarial activity against Plasmodium berghei infected in NMRI mouse assessed as mean survival days at 10 mg/kg, po administered once and measured up to 30 days", "type": "functional"}, "[18]": {"tested_on": "Plasmodium berghei", "experiment": "Antimalarial activity against Plasmodium berghei infected in NMRI mouse assessed as mean survival days at 100 mg/kg, po administered once and measured up to 30 days", "type": "functional"}, "[19]": {"experiment": "Clearance in Wistar Hannover rat at 5 mg/kg, iv by LC-MS/MS analysis", "type": "ADME, organism-based", "conditions": "in vivo"}, "[20]": {"experiment": "Volume of distribution in Wistar Hannover rat at 5 mg/kg, iv by LC-MS/MS analysis", "type": "ADME, organism-based", "conditions": "in vivo"}, "[21]": {"experiment": "Volume of distribution in Beagle dog at 1 mg/kg, iv by LC-MS/MS analysis", "type": "ADME, organism-based, Canis lupus familiaris", "conditions": "in vivo"}, "[22]": {"experiment": "Half life in Beagle dog at 1 mg/kg, iv by LC-MS/MS analysis", "conditions": "in vivo"}, "[23]": {"experiment": "Cmax in Wistar Hannover rat at 10 mg/kg, po by LC-MS/MS analysis", "type": "ADME, organism-based", "set-up": "dose 10 mg/kg, route oral", "conditions": "in vivo"}, "[24]": {"experiment": "Tmax in Wistar Hannover rat at 10 mg/kg, po by LC-MS/MS analysis", "type": "ADME, organism-based", "conditions": "in vivo"}, "[25]": {"experiment": "Oral bioavailability in Wistar Hannover rat at 10 mg/kg by LC-MS/MS analysis", "type": "ADME, organism-based", "conditions": "in vivo"}, "[26]": {"experiment": "Oral bioavailability in Beagle dog at 3 mg/kg by LC-MS/MS analysis", "type": "ADME, organism-based, Canis lupus familiaris", "conditions": "in vivo"}, "[27]": {"experiment": "Cytotoxicity against human THP1 cells assessed as reduction in cell viability after 4 days by XTT assay", "type": "cell-based", "conditions": "THP-1 cells"}, "[28]": {"molecular_target": "T1, Voltage-gated inwardly rectifying potassium channel KCNH2 (Homo sapiens, UniProt Q12809)", "T1 sequence (Q12809 whole entry)": "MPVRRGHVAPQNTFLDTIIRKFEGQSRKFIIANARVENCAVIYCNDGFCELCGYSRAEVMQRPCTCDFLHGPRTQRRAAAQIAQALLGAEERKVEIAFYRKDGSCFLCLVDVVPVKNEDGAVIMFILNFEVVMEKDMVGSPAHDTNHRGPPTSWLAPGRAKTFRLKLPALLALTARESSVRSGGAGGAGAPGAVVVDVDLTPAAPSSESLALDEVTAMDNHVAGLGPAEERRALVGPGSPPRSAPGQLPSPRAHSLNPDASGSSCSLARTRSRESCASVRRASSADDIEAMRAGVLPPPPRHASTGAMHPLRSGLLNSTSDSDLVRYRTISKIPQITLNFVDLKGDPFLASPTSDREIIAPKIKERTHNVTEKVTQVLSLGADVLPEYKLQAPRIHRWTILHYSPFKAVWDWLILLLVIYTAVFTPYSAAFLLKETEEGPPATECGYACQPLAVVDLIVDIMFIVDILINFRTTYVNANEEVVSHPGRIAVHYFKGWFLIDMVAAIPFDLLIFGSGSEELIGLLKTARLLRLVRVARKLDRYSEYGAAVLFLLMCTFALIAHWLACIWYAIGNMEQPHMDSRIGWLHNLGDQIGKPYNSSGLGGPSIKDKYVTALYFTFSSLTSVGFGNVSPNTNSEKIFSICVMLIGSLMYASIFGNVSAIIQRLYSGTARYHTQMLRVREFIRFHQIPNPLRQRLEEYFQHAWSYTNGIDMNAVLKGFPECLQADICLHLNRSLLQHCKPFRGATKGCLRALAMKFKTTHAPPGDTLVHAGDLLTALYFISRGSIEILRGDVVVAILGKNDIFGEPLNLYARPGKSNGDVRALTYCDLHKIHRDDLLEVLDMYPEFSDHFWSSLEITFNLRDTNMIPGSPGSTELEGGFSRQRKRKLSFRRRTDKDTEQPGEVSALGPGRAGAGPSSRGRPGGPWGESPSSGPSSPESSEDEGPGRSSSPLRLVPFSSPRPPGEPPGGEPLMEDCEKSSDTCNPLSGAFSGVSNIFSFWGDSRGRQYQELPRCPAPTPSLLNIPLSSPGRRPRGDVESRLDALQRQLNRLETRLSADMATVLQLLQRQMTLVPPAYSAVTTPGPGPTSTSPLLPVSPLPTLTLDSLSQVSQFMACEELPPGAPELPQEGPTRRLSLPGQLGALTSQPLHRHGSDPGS", "experiment": "Inhibition of human ERG by binding assay"}, "[29]": {"molecular_target": "T1, Voltage-gated inwardly rectifying potassium channel KCNH2", "experiment": "Inhibition of human ERG by patch clamp method"}, "[30]": {"experiment": "Plasma protein binding in human", "type": "ADME, cell-free", "conditions": "read-out: PPB"}, "[31]": {"tested_on": "Plasmodium vivax", "experiment": "Antimalarial activity against Plasmodium vivax infected in human assessed as reduction in parasite growth at 30 mg/kg, po administered daily for 3 consecutive day and measured on day 5 relative to control", "type": "functional", "set-up": "scale not given: the % may be the effect or the level left"}, "[32]": {"experiment": "Half life in human at 30 mg/kg, po", "conditions": "in vivo"}, "[33]": {"tested_on": "Plasmodium falciparum", "experiment": "Antimalarial activity against Plasmodium falciparum infected in human assessed as parasite clearance time at 30 mg/kg, po", "type": "functional"}, "[34]": {"tested_on": "Plasmodium falciparum", "experiment": "Antimalarial activity against Plasmodium falciparum infected in po dosed human assessed as reduction in parasite growth", "type": "functional"}, "[35]": {"tested_on": "Plasmodium falciparum", "experiment": "Antimalarial activity against Plasmodium falciparum infected in human assessed as median parasite clearance time at 30 mg/kg, po administered daily for 3 consecutive day and measured on day 5", "type": "functional"}, "[36]": {"tested_on": "Plasmodium falciparum", "experiment": "Antimalarial activity against Plasmodium falciparum infected in human assessed as median clearance time at 30 mg/kg, po administered daily for 3 consecutive day and measured on day 5", "type": "functional"}, "[37]": {"experiment": "in vivo", "conditions": "mouse, po, 24.6 mg/kg", "description": "Half life in mouse at 24.6 mg/kg, po and measured up to 24 hrs by LC/MS analysis"}, "[38]": {"experiment": "AUC (0 to 24 hrs) in human at 300 mg, po by LC-MS/MS analysis", "conditions": "in vivo"}, "[39]": {"experiment": "Cmax in human at 150 mg, po for 3 days and measured on day 1 by LC-MS/MS analysis", "conditions": "in vivo"}, "[40]": {"experiment": "Cmax in human at 150 mg, po for 3 days and measured on day 3 by LC-MS/MS analysis", "conditions": "in vivo"}, "[41]": {"experiment": "AUC (0 to 24 hrs) in human at 150 mg, po for 3 days and measured on day 3 by LC-MS/MS analysis", "conditions": "in vivo"}, "[42]": {"experiment": "Apparent clearance in human at 300 mg, po and measured up to 96 to 144 hrs by LC-MS/MS analysis", "conditions": "in vivo, read-out: CL(app) (converted)"}}}
{"smiles": "C[C@H]1Cc2c([nH]c3cc(Cl)c(F)cc23)[C@@]2(N1)C(=O)Nc1ccc(Cl)cc12", "note": "[CIPARGAMIN]", "values": [{"measurement": "Tmax", "setting": "[1]", "value": 8, "unit": "h"}, {"measurement": "half-life", "setting": "[2]", "value": 24, "unit": "h"}, {"measurement": "Cmax", "setting": "[3]", "value": 2000, "unit": "ng/mL"}, {"measurement": "EC50", "setting": "[4]", "value": "0.5 to 1.4", "unit": "nM"}, {"measurement": "Tmax", "setting": "[5]", "value": 1, "unit": "h"}, {"measurement": "bioavailability", "setting": "[6]", "value": 100, "unit": "%"}, {"measurement": "AUC(0-inf)", "setting": "[7]", "value": 524, "unit": "µM·h"}, {"measurement": "EC50", "setting": "[8]", "value": "0.5 to 1.4", "unit": "nM"}, {"measurement": "EC50", "setting": "[9]", "value": "0.5 to 1.4", "unit": "nM"}, {"measurement": "EC50", "setting": "[10]", "value": "0.5 to 1.4", "unit": "nM"}, {"measurement": "EC50", "setting": "[11]", "value": "0.5 to 1.4", "unit": "nM"}, {"measurement": "EC50", "setting": "[12]", "value": "0.5 to 1.4", "unit": "nM"}, {"measurement": "EC50", "setting": "[13]", "value": "0.5 to 1.4", "unit": "nM"}, {"measurement": "Activity", "setting": "[14]", "value": 99, "unit": "%"}, {"measurement": "Activity", "setting": "[15]", "value": 90, "unit": "%"}, {"measurement": "Activity", "setting": "[16]", "value": 100, "unit": "%"}, {"measurement": "MSD", "setting": "[17]", "value": 13.3, "unit": "days"}, {"measurement": "MSD", "setting": "[18]", "value": ">30", "unit": "days"}, {"measurement": "clearance", "setting": "[19]", "value": 4.2, "unit": "mL/min/kg"}, {"measurement": "Vd", "setting": "[20]", "value": 3.18, "unit": "L/kg"}, {"measurement": "Vd", "setting": "[21]", "value": 2.17, "unit": "L/kg"}, {"measurement": "half-life", "setting": "[22]", "value": 10.9, "unit": "h"}, {"measurement": "Cmax", "setting": "[23]", "value": 1210, "unit": "ng/mL"}, {"measurement": "Tmax", "setting": "[24]", "value": 5.3, "unit": "h"}, {"measurement": "bioavailability", "setting": "[25]", "value": 85, "unit": "%"}, {"measurement": "bioavailability", "setting": "[26]", "value": 68, "unit": "%"}, {"measurement": "CC50 at 96 h", "setting": "[27]", "value": "> 10000", "unit": "nM"}, {"measurement": "IC50", "setting": "[28]", "value": "≥ 30000", "unit": "nM"}, {"measurement": "IC50", "setting": "[29]", "value": "≥ 30000", "unit": "nM"}, {"measurement": "fraction unbound", "setting": "[30]", "value": "< 0.003"}, {"measurement": "Activity", "setting": "[31]", "value": 100, "unit": "%"}, {"measurement": "half-life", "setting": "[32]", "value": 20.8, "unit": "h"}, {"measurement": "Time", "setting": "[33]", "value": 10, "unit": "h"}, {"measurement": "MIC", "setting": "[34]", "value": 0.126, "unit": "ng/mL"}, {"measurement": "Time", "setting": "[35]", "value": 12, "unit": "h"}, {"measurement": "Time", "setting": "[36]", "value": 16, "unit": "h"}, {"measurement": "half-life at 24 h", "setting": "[37]", "value": 10, "unit": "h"}, {"measurement": "AUC(0-t) at 24 h", "setting": "[38]", "value": 36000, "unit": "ng·h/mL"}, {"measurement": "Cmax", "setting": "[39]", "value": 1170, "unit": "ng/mL"}, {"measurement": "Cmax", "setting": "[40]", "value": 1770, "unit": "ng/mL"}, {"measurement": "AUC at 24 h", "setting": "[41]", "value": 29400, "unit": "ng·h/mL"}, {"measurement": "CL/F", "setting": "[42]", "value": 91.7, "unit": "mL/min"}]}
